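Growth conditions: 96-well plates. Treatment: test compound, 48 hours, 5 concentrations. Analysis: linear interpolation between bracketing concentrations; unreached endpoints set to highest concentration. The concentration for 50% growth inhibition is given as GI50. TGI is the concentration that stops growth completely.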
What was measured:
Assay in all cases: growth of human tumour cells (NCI), 48 h
UACC-257 melanoma = test system: UACC-257 melanoma
OVCAR-3 ovarian = test system: OVCAR-3 ovarian
KM12 colon = test system: KM12 colon
SF-268 CNS = test system: SF-268 CNS
A498 renal = test system: A498 renal
SF-295 CNS = test system: SF-295 CNS
CAKI-1 renal = test system: CAKI-1 renal
SF-539 CNS = test system: SF-539 CNS
CCRF-CEM leukemia = test system: CCRF-CEM leukemia
HCT-116 colon = test system: HCT-116 colon

CC(CCCOC(c1ccccc1)(c1ccccc1)c1ccccc1)OC(=O)Nc1cc([N+](=O)[O-])cc([N+](=O)[O-])c1 (stereo not given)
TGI (UACC-257 melanoma): 85.1 µM | TGI (OVCAR-3 ovarian): > 100 µM | TGI (KM12 colon): > 100 µM | TGI (SF-268 CNS): > 100 µM | TGI (A498 renal): 72.3 µM | TGI (SF-295 CNS): > 100 µM | TGI (CAKI-1 renal): 72.1 µM | TGI (SF-539 CNS): > 100 µM | TGI (CCRF-CEM leukemia): > 100 µM | TGI (HCT-116 colon): > 100 µM

CCOC(=O)c1cnn(-c2ccnc3c(C(F)(F)F)cccc23)c1N
GI50 (UACC-257 melanoma): > 100 µM | TGI (UACC-257 melanoma): > 100 µM | GI50 (OVCAR-3 ovarian): > 100 µM | TGI (OVCAR-3 ovarian): > 100 µM | GI50 (KM12 colon): > 100 µM | TGI (KM12 colon): > 100 µM | GI50 (SF-268 CNS): > 100 µM | TGI (SF-268 CNS): > 100 µM | GI50 (A498 renal): > 100 µM | TGI (A498 renal): > 100 µM | GI50 (SF-295 CNS): > 100 µM | TGI (SF-295 CNS): > 100 µM | GI50 (CAKI-1 renal): > 100 µM | TGI (CAKI-1 renal): > 100 µM | GI50 (SF-539 CNS): > 100 µM | TGI (SF-539 CNS): > 100 µM | GI50 (CCRF-CEM leukemia): > 100 µM | TGI (CCRF-CEM leukemia): > 100 µM | GI50 (HCT-116 colon): > 100 µM | TGI (HCT-116 colon): > 100 µM

CC1=CC(=O)C(C(C)=Nc2ccccc2Cl)C(=O)O1 (stereo not given)
GI50 (UACC-257 melanoma): > 100 µM | TGI (UACC-257 melanoma): > 100 µM | GI50 (OVCAR-3 ovarian): > 100 µM | TGI (OVCAR-3 ovarian): > 100 µM | GI50 (KM12 colon): > 100 µM | TGI (KM12 colon): > 100 µM | GI50 (SF-268 CNS): > 100 µM | TGI (SF-268 CNS): > 100 µM | GI50 (A498 renal): > 100 µM | TGI (A498 renal): > 100 µM | GI50 (SF-295 CNS): > 100 µM | TGI (SF-295 CNS): > 100 µM | GI50 (CAKI-1 renal): > 100 µM | TGI (CAKI-1 renal): > 100 µM | GI50 (SF-539 CNS): > 100 µM | TGI (SF-539 CNS): > 100 µM | GI50 (CCRF-CEM leukemia): > 100 µM | TGI (CCRF-CEM leukemia): > 100 µM | GI50 (HCT-116 colon): > 100 µM | TGI (HCT-116 colon): > 100 µM

CCOC(=O)N1CCN(S(=O)(=O)c2oc(-c3ccc(Cl)cc3)nc2C#N)CC1
GI50 (UACC-257 melanoma): 2.37 µM | TGI (UACC-257 melanoma): 7.71 µM | GI50 (OVCAR-3 ovarian): 1.79 µM | TGI (OVCAR-3 ovarian): 3.38 µM | GI50 (KM12 colon): 10.5 µM | TGI (KM12 colon): 35.6 µM | GI50 (SF-268 CNS): 2.56 µM | TGI (SF-268 CNS): 6.75 µM | GI50 (A498 renal): 17.2 µM | TGI (A498 renal): > 100 µM | GI50 (SF-295 CNS): 28.2 µM | TGI (SF-295 CNS): > 100 µM | GI50 (CAKI-1 renal): 1.75 µM | TGI (CAKI-1 renal): 3.14 µM | GI50 (SF-539 CNS): 3.34 µM | TGI (SF-539 CNS): 10.5 µM | GI50 (CCRF-CEM leukemia): 0.36 µM | TGI (CCRF-CEM leukemia): 5.13 µM | GI50 (HCT-116 colon): 1.74 µM | TGI (HCT-116 colon): 3.7 µM

NCc1ccc(-n2c(-c3nonc3N)nc3cnccc32)cc1
GI50 (UACC-257 melanoma): > 25 µM | TGI (UACC-257 melanoma): > 25 µM | GI50 (OVCAR-3 ovarian): 7.13 µM | TGI (OVCAR-3 ovarian): > 25 µM | GI50 (KM12 colon): 8.79 µM | TGI (KM12 colon): > 25 µM | GI50 (SF-268 CNS): 5.26 µM | TGI (SF-268 CNS): > 25 µM | GI50 (A498 renal): 1.38 µM | TGI (A498 renal): > 22.1 µM | GI50 (SF-295 CNS): 16 µM | TGI (SF-295 CNS): > 25 µM | GI50 (CAKI-1 renal): 2.27 µM | TGI (CAKI-1 renal): > 25 µM | GI50 (SF-539 CNS): 2.57 µM | TGI (SF-539 CNS): > 23.6 µM | GI50 (CCRF-CEM leukemia): 6.26 µM | TGI (CCRF-CEM leukemia): > 25 µM | GI50 (HCT-116 colon): 2.69 µM | TGI (HCT-116 colon): > 25 µM

COc1ccc2c(c1)C(=O)c1c-2n(CCCN2CCOCC2)c(=O)c2ccccc12
GI50 (UACC-257 melanoma): 4.46 µM | TGI (UACC-257 melanoma): > 31.5 µM | GI50 (OVCAR-3 ovarian): 2.94 µM | TGI (OVCAR-3 ovarian): 12.2 µM | GI50 (KM12 colon): 3.64 µM | TGI (KM12 colon): 42.5 µM | GI50 (SF-268 CNS): 2.7 µM | TGI (SF-268 CNS): > 43.9 µM | GI50 (A498 renal): 1.87 µM | TGI (A498 renal): 5.48 µM | GI50 (SF-295 CNS): 1.35 µM | TGI (SF-295 CNS): 9.71 µM | GI50 (CAKI-1 renal): 1.79 µM | TGI (CAKI-1 renal): 8.07 µM | GI50 (SF-539 CNS): 2.17 µM | TGI (SF-539 CNS): 5.33 µM | GI50 (CCRF-CEM leukemia): 1.19 µM | TGI (CCRF-CEM leukemia): > 20.7 µM | GI50 (HCT-116 colon): 1.66 µM | TGI (HCT-116 colon): 4.54 µM

O=C1CC2C(=O)N(Cc3ccccc3)C1C(S(=O)(=O)c1ccccc1)C2S(=O)(=O)c1ccccc1 (stereo not given)
TGI (UACC-257 melanoma): 3.25 µM | TGI (OVCAR-3 ovarian): 3.65 µM | TGI (KM12 colon): 29.7 µM | TGI (SF-268 CNS): 12.1 µM | TGI (A498 renal): 32.2 µM | TGI (SF-295 CNS): 37.4 µM | TGI (CAKI-1 renal): 1.85 µM | TGI (SF-539 CNS): 4.18 µM | TGI (CCRF-CEM leukemia): 3.46 µM | TGI (HCT-116 colon): 15.9 µM

O=c1[nH]cc(OCC(F)(F)F)c(=O)[nH]1
TGI (UACC-257 melanoma): > 100 µM | TGI (OVCAR-3 ovarian): > 100 µM | TGI (KM12 colon): > 100 µM | TGI (SF-268 CNS): > 100 µM | TGI (A498 renal): > 100 µM | TGI (SF-295 CNS): > 100 µM | TGI (CAKI-1 renal): > 100 µM | TGI (SF-539 CNS): > 100 µM | TGI (CCRF-CEM leukemia): > 100 µM | TGI (HCT-116 colon): > 100 µM

CCSc1nc(COC(=O)NC)c(COC(=O)NC)n1C
TGI (UACC-257 melanoma): > 100 µM | TGI (OVCAR-3 ovarian): > 100 µM | TGI (KM12 colon): > 100 µM | TGI (SF-268 CNS): > 100 µM | TGI (A498 renal): > 82 µM | TGI (SF-295 CNS): > 100 µM | TGI (CAKI-1 renal): > 78.2 µM | TGI (SF-539 CNS): > 100 µM | TGI (CCRF-CEM leukemia): > 100 µM | TGI (HCT-116 colon): > 100 µM

CCOC(=O)N1C2C=C(C)C(C3C(C)C(=O)N31)N(C(=O)c1ccccc1)O2 (stereo not given)
TGI (UACC-257 melanoma): > 100 µM | TGI (OVCAR-3 ovarian): > 100 µM | TGI (KM12 colon): > 100 µM | TGI (SF-268 CNS): > 100 µM | TGI (A498 renal): > 100 µM | TGI (SF-295 CNS): > 100 µM | TGI (CAKI-1 renal): > 100 µM | TGI (SF-539 CNS): > 100 µM | TGI (CCRF-CEM leukemia): > 100 µM | TGI (HCT-116 colon): > 100 µM

Reference: PubChem BioAssay (NCI)
